The source of these data is patent US12178825B2, “Method and compositions for forming a copper-containing complex and uses thereof” (COLD SPRING HARBOR LABORATORY, priority 2017, dated 2024).

One data set has as its target T1, PTP1B1-394 (Homo sapiens, UniProt P18031).
T1 construct: elution profile of PTP1B1-394 in the absence (circles) and presence (triangles) of DPM-1001; His-tag; made in house; host or cells: Escherichia coli BL21 (DE3)-RIL
The experiment in a line: Gel filtration for aggregation of PTP1B. The following applies: gel filtration elution profile. The protocol:
PTP1B (5 μM) was incubated with 10 μM MSI1436 in a final volume of 200 μl buffer (50 mM HEPES, pH 7.0, 100 mM NaCl, 0.2 mM EDTA, 2 mM DTT) at 4° C. The reaction mixture was then subjected to gel filtration on a Superdex 200 column (HR30/10; Pharmacia Biotech Inc.). Prior to loading the MSI1436-saturated protein sample, the column was equilibrated with 50 mM HEPES, pH 7.0, 100 mM NaCl, 0.2 mM EDTA and 2 mM DTT. The void volume (Vo) and total volume (Vt) were measured using blue dextran and Coomassie blue dye, respectively. Fractions of 0.5 ml were collected, and the protein concentration in each sample was determined by Bradford assay or by recording the UV absorption spectrum at 280 nm.

Data set [1] in a line: Body weight in diet-induced obesity. The format is in vivo, C57Bl6/J mice. How it is done: (§1) All protocols were approved by the Institutional Animal Use and Care Committee of Cold Spring Harbor laboratory. 10 week-old male mice fed chow diet or high-fat diet (D12492) were acclimatized for 10 days under standard conditions before experiments. Mice were injected intraperitoneally (i.p.) once daily with vehicle, 5 mg/kg of DPM-1001 intraperitoneally or orally for 50 days. Mice were euthanized after 6 h of fasting, and serum samples were collected to measure the metabolic parameters and tissue samples were collected for studying changes in signaling.

A short description of data set [2]: Glucose tolerance and insulin tolerance tests. The format is in vivo, C57Bl6/J mice. The following applies: HFD-fed mice, orally or intraperitoneally. How it is done: as §1
Glucose in tail blood was measured using a glucometer (One-Touch Basic; Lifescan, CA). For glucose tolerance tests (GTTs), mice were fasted for 10 hours and then injected 20% D-glucose (2 mg/g body weight) and the blood glucose was monitored immediately before and at 15, 30, 60 and 120 mins following the injection. For insulin tolerance tests (ITTs), 4-h fasted animals were given insulin (0.75 mU/g) and blood glucose was measured immediately before and at 30, 60 and 120 minutes postinjection. Statistical analysis was performed using ANOVA for both GTT and ITT.

The test system of data set [3] is ATP7B-knockdown HepG2 cells. Description: Copper-induced toxicity, MTT cell survival. The format is cell-based. As to conditions: DPM-1001 2 μM; ATP7B-knockdown HepG2. How it is done:
HepG2 cells purchased from ATCC were cultured in RPMI media containing 10% FBS, 5% CO2 at 37 C. Control (AG09319) and Wilson's disease patient-derived fibroblasts (GM00032, GM00033, GM05257, GM12158, GM05798 and GM11778) were obtained from Coriell Biorepository and cultured in DMEM, 10% FBS, 5% CO2 at 37° C.
For cell survival assays, 10,000 cells were seeded in a 96 well plate and cultured until fully confluent (90%). To these cells, ATP7B siRNAs or scrambled siRNA (negative control) purchased from Qiagen and Santa Cruz Biotechnology were transfected. Lipofectamine RNAiMAX reagent (Thermofischer) and siRNAs were diluted into a final volume of 100 μl in Opti-MEM (Gibco). The mixture was incubated at room temperature for 30 min, following which 800 μl of Opti-MEM was added to the mixture. The above transfection solution was overlaid onto cells at a final concentration of 5 nM siRNA. Transfection of HepG2 cells with scrambled siRNA served as negative control. Twelve hours after the transfection, complete media was added to each well. Following which, knockdown efficiency was checked (24 hours later) and cells were exposed to varying concentration of copper (0-1 mM) for 12 h and cell viability was determined using the MTT assay as previously described (37). […]

A further data set concerns TX mice. Description: Survival and tolerability in the TX mouse model of Wilson's disease. The format is in vivo. How it is done: C3He-Atp7b^tx-j were obtained from the Jackson laboratory. All animal experiments were performed according to protocols approved by the Institutional Animal Use and Care Committee of Cold Spring Harbor laboratory. Mice were injected intraperitoneally (i.p.) with vehicle, or administered DPM-1001 intraperitoneally or orally at 5 mg/kg once every third day, for over a year. At the end of the study animals were euthanized and tissue samples were removed for biochemical studies.

The subject of another data set is non-TNBC cell lines. The experiment in a line: MTT cell survival, non-TNBC cell lines. The format is cell-based. The protocol: (§2) The MTT assay was used to evaluate cell survival in the absence and presence of different compounds. The thiazolyl blue tetrazolium bromide (MTT) was dissolved in phosphate buffered saline (PBS) at a concentration of 5 mg/ml, filtered, and stored at 4° C. About 10,000 cells were seeded into a 96-well plate and cultured in growth medium containing serum. After 24 hours, cells were treated with the indicated concentrations of DPM-1001 or DPM-1003 (0-100 uM) for 2 hrs. Following which 20 μl MTT was added into each well. An ELISA plate reader (Biotek, Winooski, Vermont, USA) was used to measure the optical density at 490 nm.

Another data set relates to AGS cells. Description: Cell survival. The format is cell-based. How it is done:
as §2

The test system of a further data set is KATOIII cells. The experiment in a line: Cell survival. Type of data set: cell-based. The protocol:
as §2

A further data set concerns MDA-MB-468 cells. Description: Cell survival. The format is cell-based. How it is done: as §2
A further data set relates to N87. Description: Cell survival. Type of data set: cell-based. How it is done: as §2
The next data set relates to NIH 3T3 cells. Description: Cell survival. The format is cell-based. How it is done: as §2
Another data set relates to SNU116 cells. Description: Cell survival. The format is cell-based. How it is done: as §2
Another data set has as its system SNU1. The experiment in a line: Cell survival. Type of data set: cell-based. How it is done:
as §2

For another data set, the system named is SNU5 cells. The experiment in a line: Cell survival. The format is cell-based. The protocol:
as §2

Entries after “also recorded” stand apart in the source; their conditions may differ.

T1 sequence (P18031 1-394): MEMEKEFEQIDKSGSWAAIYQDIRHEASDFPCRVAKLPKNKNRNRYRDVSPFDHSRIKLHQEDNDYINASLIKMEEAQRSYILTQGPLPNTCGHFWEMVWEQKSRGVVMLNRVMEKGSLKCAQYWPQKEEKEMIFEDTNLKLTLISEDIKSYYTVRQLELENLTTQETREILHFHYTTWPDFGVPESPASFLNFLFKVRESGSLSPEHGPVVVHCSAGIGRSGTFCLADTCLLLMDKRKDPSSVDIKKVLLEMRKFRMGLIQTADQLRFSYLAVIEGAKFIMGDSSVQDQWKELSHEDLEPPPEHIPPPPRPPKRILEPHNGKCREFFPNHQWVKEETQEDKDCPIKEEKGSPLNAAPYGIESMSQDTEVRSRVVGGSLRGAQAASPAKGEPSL

For the molecule `COC(=O)CCC(C)C1CCC2C3C(O)CC4CC(NCCCCNCc5ccccn5)CCC4(C)C3CCC12C` (stereo not shown) [DPM-1001], at PTP1B1-394, the “aggregation of PTP1B” value is recorded as “did not induce aggregation”. Besides, in data set [1] (chow diet), the “weight loss in chow fed mice” value is reported as “without weight loss; also recorded: no weight loss”. Moreover, the “onset of weight loss” value in [1] (high fat diet-fed mice) is listed as “started losing weight within five days of treatment”. Further, the glucose tolerance result in data set [2] (D-glucose 2 mg/g) is “lower rise in blood glucose levels; also recorded: improved glucose tolerance”. Further, in data set [2] (insulin 0.75 mU/g), the “insulin sensitivity (insulin tolerance test)” value is on record as “enhanced the effect of insulin to reduce blood glucose levels; also recorded: improved”. Also, the “protection from copper-induced cell death” value in [3] is on record as “able to rescue cells from copper-induced cell death”. Besides, in the data set with TX mice (5 mg/kg, every third day), the “longevity of TX mice (in words)” value was “prolongs their life”. Besides, the “survival at one year of age” value came to 90% in the data set on TX mice (TX mice) and 100% in the data set on TX mice (wild-type mice). For the same molecule, in the data set on TX mice (wild-type or TX mice), the “toxic side-effects of prolonged treatment” value is “did not have overt toxic side-effects”. Also, the “survival of non-TNBC cell lines, DPM-1001 versus DPM-1003” value with non-TNBC cell lines is “did not differ from each other”. For the same molecule, in the data set on AGS cells, the “survival of AGS cells” value is “inhibited survival; also recorded: inhibitory effect”. In the data set with KATOIII cells, the “survival of KATOIII cells” value is “inhibited survival; also recorded: inhibitory effect”. Also, the “survival of MDA-MB-468 cells” value in the data set with MDA-MB-468 cells is on record as “inhibitory effect”. In addition, the “survival of N87 cells” value in the data set with N87 is reported as “inhibited survival; also recorded: inhibitory effect”. The “survival of NIH 3T3 cells” value in the data set on NIH 3T3 cells is given as “no effect on survival”. For the same molecule, in the data set with SNU116 cells, the “survival of SNU116 cells” value is given as “inhibited survival; also recorded: inhibitory effect”. Besides, the “survival of SNU1 cells” value in the data set with SNU1 is listed as “inhibited survival”. Also, in the data set with SNU5 cells, the “survival of SNU5 cells” value is recorded as “inhibited survival; also recorded: inhibitory effect”.
